Data reported in paper PMC9736855, “Discovery of 3-Amino-1H-pyrazole-Based Kinase Inhibitors to Illuminate the Understudied PCTAIRE Family” (International Journal of Molecular Sciences, 2022).

Columns and labels:
Assay in all cases: DSF
Type in all cases: binding
[1] = biological target: T1, MELK (Homo sapiens, UniProt Q14680)
T1 construct: purchased in-house DSF panel (SGC Frankfurt)
Description: (§1) Measurements were performed in duplicates.

[2] = biological target: T2, STK10 (Homo sapiens, UniProt O94804)
T2 construct: purchased in-house DSF panel (SGC Frankfurt)
T2 sequence (O94804 18-317): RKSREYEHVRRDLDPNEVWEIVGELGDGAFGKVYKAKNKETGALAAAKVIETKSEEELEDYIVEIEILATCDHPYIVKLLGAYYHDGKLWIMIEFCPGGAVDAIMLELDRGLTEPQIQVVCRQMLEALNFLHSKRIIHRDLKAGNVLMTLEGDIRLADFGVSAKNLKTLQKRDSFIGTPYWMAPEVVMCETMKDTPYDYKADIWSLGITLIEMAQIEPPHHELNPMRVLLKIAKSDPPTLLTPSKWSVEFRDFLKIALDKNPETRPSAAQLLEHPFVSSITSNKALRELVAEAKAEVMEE
Description: as §1

[3] = biological target: T3, BMP2K (Homo sapiens, UniProt Q9NSY1)
T3 construct: purchased in-house DSF panel (SGC Frankfurt)
T3 sequence (Q9NSY1 38-345): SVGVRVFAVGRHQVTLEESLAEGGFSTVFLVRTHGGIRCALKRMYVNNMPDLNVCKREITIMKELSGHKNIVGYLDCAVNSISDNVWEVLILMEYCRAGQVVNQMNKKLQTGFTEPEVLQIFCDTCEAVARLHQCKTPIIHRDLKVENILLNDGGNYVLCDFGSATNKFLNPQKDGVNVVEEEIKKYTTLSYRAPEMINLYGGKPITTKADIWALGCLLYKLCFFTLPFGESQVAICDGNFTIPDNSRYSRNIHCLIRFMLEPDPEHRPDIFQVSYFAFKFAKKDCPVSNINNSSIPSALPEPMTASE
Description: as §1

[4] = biological target: T4, FLT1 (Homo sapiens, UniProt P17948)
T4 construct: purchased in-house DSF panel (SGC Frankfurt)
T4 sequence (P17948 801-1158): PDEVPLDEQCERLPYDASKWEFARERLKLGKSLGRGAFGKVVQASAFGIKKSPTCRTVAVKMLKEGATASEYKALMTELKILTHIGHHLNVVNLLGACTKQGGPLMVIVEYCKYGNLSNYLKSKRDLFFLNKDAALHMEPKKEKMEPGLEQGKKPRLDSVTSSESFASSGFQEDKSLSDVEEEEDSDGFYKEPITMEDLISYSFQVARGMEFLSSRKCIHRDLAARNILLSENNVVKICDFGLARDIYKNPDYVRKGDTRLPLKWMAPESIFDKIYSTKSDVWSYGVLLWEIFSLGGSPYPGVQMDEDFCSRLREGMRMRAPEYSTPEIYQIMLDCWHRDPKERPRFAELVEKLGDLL
Description: as §1

[5] = biological target: T5, MARK4 (Homo sapiens, UniProt Q96L34)
T5 construct: purchased in-house DSF panel (SGC Frankfurt)
T5 sequence (Q96L34 59-310): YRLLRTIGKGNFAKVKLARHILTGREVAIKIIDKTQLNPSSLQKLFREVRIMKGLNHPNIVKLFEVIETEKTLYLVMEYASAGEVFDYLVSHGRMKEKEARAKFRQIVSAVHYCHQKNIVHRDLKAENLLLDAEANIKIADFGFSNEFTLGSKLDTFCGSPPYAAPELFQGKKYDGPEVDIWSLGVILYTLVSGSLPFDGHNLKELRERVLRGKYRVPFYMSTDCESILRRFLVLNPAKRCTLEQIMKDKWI
Description: as §1

[6] = biological target: T6, MAP2K7 (Homo sapiens, UniProt O14733)
T6 construct: purchased in-house DSF panel (SGC Frankfurt)
T6 sequence (O14733 120-380): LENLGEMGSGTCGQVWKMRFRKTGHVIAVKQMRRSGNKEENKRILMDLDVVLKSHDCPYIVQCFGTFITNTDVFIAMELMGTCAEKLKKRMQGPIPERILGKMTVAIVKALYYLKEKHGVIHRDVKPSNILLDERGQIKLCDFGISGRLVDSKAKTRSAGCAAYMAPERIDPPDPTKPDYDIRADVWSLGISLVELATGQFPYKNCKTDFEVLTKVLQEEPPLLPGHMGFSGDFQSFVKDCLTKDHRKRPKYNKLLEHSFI
Description: as §1

[7] = biological target: T7, CDC42BPA (Homo sapiens, UniProt Q5VT25)
T7 construct: purchased in-house DSF panel (SGC Frankfurt)
T7 sequence (Q5VT25 1-414): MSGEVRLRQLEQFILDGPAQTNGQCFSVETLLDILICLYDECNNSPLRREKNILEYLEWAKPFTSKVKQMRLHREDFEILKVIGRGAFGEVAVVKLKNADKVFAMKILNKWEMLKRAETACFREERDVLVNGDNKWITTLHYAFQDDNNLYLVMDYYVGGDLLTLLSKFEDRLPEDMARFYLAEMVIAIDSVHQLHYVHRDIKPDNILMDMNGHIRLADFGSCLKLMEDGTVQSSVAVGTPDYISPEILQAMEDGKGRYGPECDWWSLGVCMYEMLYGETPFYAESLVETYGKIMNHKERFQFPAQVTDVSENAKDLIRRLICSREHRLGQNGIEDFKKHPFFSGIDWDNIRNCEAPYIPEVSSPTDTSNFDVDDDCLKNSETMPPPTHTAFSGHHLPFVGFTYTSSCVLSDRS
Description: as §1

[8] = biological target: T8, STK39 (Homo sapiens, UniProt Q9UEW8)
T8 construct: purchased in-house DSF panel (SGC Frankfurt)
Description: as §1

[9] = biological target: T9, DCAMKL1 (Homo sapiens, UniProt O15075)
T9 construct: purchased in-house DSF panel (SGC Frankfurt)
T9 sequence (O15075 390-647): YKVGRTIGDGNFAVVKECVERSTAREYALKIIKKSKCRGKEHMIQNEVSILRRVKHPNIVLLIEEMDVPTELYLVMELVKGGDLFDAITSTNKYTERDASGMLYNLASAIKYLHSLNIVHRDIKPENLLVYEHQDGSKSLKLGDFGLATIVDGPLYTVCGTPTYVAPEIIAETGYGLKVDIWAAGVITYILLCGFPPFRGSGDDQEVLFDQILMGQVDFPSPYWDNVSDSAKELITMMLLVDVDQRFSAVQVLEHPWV
Description: as §1

[10] = biological target: T10, EPHA7 (Homo sapiens, UniProt Q15375)
T10 construct: purchased in-house DSF panel (SGC Frankfurt)
T10 sequence (Q15375 590-899): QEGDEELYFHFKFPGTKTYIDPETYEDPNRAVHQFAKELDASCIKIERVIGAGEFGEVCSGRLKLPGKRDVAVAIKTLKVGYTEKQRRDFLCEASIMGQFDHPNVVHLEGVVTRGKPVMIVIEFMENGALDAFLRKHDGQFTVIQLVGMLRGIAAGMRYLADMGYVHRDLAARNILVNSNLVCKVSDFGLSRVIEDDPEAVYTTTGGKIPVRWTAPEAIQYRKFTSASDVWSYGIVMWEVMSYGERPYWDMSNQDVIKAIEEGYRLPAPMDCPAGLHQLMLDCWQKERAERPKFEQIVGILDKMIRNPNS
Description: as §1

[11] = biological target: T11, EPHB3 (Homo sapiens, UniProt P54753)
T11 construct: purchased in-house DSF panel (SGC Frankfurt)
T11 sequence (P54753 616-910): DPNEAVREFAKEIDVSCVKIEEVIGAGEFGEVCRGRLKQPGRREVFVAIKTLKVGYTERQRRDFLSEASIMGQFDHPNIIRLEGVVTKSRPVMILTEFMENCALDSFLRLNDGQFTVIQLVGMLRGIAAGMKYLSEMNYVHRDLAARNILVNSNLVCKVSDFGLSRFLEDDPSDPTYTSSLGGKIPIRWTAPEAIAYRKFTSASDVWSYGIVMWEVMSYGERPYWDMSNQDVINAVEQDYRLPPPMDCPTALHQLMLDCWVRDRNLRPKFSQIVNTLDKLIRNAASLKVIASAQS
Description: as §1

[12] = biological target: T12, CAMK4 (Homo sapiens, UniProt Q16566)
T12 construct: purchased in-house DSF panel (SGC Frankfurt)
T12 sequence (Q16566 46-300): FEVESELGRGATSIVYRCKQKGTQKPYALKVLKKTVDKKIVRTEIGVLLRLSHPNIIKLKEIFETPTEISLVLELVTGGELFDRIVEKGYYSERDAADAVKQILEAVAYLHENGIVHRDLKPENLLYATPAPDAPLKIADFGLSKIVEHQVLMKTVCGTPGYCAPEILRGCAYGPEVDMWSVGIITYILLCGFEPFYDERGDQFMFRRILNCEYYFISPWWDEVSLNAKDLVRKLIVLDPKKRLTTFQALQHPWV
Description: as §1

[13] = biological target: T13, PAK1 (Homo sapiens, UniProt Q13153)
T13 construct: purchased in-house DSF panel (SGC Frankfurt)
T13 sequence (Q13153 249-545): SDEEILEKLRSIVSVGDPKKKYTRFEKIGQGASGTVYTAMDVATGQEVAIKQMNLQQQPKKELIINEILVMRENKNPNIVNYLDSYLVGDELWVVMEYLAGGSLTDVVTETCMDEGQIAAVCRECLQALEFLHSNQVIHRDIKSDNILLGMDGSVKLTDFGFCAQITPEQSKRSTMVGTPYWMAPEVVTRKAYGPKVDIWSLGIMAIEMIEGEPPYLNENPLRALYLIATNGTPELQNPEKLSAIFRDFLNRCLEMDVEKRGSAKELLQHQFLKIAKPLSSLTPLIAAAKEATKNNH
Description: as §1

[14] = biological target: T14, SLK (Homo sapiens, UniProt Q9H2G2)
T14 construct: purchased in-house DSF panel (SGC Frankfurt)
Description: as §1

[15] = biological target: T15, DAPK1 (Homo sapiens, UniProt P53355)
T15 construct: purchased in-house DSF panel (SGC Frankfurt)
T15 sequence (P53355 1-285): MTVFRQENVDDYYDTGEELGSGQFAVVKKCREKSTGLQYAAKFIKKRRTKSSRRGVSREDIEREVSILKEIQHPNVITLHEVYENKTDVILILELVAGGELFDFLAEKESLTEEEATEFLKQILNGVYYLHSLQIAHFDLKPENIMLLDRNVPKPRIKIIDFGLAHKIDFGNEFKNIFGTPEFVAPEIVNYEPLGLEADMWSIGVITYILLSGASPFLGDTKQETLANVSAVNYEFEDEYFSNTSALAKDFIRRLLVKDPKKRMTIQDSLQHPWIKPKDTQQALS
Description: as §1

[16] = biological target: T16, PLK4 (Homo sapiens, UniProt O00444)
T16 construct: purchased in-house DSF panel (SGC Frankfurt)
T16 sequence (O00444 2-275): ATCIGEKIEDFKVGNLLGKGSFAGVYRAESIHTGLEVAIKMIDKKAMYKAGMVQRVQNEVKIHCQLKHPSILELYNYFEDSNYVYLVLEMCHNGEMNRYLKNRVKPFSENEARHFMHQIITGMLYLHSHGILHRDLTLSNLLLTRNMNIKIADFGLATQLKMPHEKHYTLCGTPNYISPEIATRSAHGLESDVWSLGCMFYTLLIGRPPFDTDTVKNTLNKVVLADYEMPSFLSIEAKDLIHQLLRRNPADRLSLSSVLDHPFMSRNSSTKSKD
Description: as §1

[17] = biological target: T17, WNK1 (Homo sapiens, UniProt Q9H4A3)
T17 construct: purchased in-house DSF panel (SGC Frankfurt)
T17 sequence (Q9H4A3 206-483): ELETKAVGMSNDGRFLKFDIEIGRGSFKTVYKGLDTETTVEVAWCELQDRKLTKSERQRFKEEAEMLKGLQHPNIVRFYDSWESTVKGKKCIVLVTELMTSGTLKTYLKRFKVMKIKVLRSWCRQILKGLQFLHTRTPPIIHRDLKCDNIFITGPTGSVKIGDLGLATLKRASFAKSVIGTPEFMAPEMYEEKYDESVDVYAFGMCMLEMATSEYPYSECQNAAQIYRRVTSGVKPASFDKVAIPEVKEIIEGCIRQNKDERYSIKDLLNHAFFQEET
Description: as §1

[18] = biological target: T18, STK4 (Homo sapiens, UniProt Q13043)
T18 construct: purchased in-house DSF panel (SGC Frankfurt)
T18 sequence (Q13043 30-281): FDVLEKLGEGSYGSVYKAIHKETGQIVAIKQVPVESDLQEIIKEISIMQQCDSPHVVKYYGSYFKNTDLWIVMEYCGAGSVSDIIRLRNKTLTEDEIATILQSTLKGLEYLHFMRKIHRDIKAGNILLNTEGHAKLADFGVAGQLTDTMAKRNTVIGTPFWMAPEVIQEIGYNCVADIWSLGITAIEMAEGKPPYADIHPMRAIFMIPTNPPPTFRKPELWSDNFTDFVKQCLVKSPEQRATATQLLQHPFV
Description: as §1

T1 sequence (Q14680 whole entry): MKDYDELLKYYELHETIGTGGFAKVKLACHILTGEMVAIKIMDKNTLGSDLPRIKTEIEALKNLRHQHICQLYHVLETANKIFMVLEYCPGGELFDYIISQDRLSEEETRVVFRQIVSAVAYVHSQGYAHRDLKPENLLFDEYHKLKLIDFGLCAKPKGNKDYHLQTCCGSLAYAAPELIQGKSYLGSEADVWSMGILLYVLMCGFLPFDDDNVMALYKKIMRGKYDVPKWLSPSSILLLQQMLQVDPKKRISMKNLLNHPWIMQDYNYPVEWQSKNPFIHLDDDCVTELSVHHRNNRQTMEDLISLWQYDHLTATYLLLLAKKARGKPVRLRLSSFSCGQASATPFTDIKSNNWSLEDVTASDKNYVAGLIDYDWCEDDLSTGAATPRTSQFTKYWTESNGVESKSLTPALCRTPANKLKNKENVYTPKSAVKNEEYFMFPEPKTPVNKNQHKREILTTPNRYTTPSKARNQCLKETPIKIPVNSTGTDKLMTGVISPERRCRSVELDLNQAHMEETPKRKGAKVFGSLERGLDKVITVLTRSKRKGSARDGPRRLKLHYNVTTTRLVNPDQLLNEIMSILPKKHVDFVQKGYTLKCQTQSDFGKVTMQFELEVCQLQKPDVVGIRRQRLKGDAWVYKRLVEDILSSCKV

SMILES	ΔTm MELK [1]	ΔTm STK10 [2]	ΔTm BMP2K [3]	ΔTm FLT1 [4]	ΔTm MARK4 [5]	ΔTm MAP2K7 [6]	ΔTm CDC42BPA [7]	ΔTm STK39 [8]	ΔTm DCAMKL1 [9]	ΔTm EPHA7 [10]	ΔTm EPHB3 [11]	ΔTm CAMK4 [12]	ΔTm PAK1 [13]	ΔTm SLK [14]	ΔTm DAPK1 [15]	ΔTm PLK4 [16]	ΔTm WNK1 [17]	ΔTm STK4 [18]
COC(=O)c1cc(Nc2ccnc(NCCOCCNC(=O)OC(C)(C)C)n2)[nH]n1 [21d, methyl 5-((2-((2-(2-((tert-butoxycarbonyl)amino)ethoxy)ethyl)amino)pyrimidin-4-yl)amino)-1H-pyrazole-3-carboxylate]	0.8 °C	-0.7 °C	5.7 °C	2.0 °C	1.7 °C	0.7 °C	0.5 °C	1.8 °C	1.5 °C	1.3 °C	0.8 °C	-0.2 °C	1.1 °C	1.0 °C	-2.4 °C	3.0 °C	0.9 °C	1.6 °C
COC(=O)c1cc(Nc2ccnc(NCc3ccc(NC(=O)OC(C)(C)C)cc3)n2)[nH]n1 [21i, methyl 5-((2-((4-((tert-butoxycarbonyl)amino)benzyl)amino)pyrimidin-4-yl)amino)-1H-pyrazole-3-carboxylate]	0.9 °C	-0.7 °C	2.8 °C	2.2 °C	3.3 °C	0.5 °C	-0.5 °C	2.1 °C	-0.6 °C	0.6 °C	0.4 °C	-0.4 °C	-0.4 °C	0.2 °C	0.6 °C	4.1 °C	0.6 °C	2.2 °C
CC(C)OC(=O)c1cc(Nc2ccnc(NCc3ccc(NC(=O)OC(C)(C)C)cc3)n2)n[nH]1 [42d, isopropyl 3-((2-((4-((tert-butoxycarbonyl)amino)benzyl)amino)pyrimidin-4-yl)amino)-1H-pyrazole-5-carboxylate]	-0.8 °C	-0.7 °C	1.4 °C	0.6 °C	0.3 °C	-0.3 °C	-0.7 °C	-0.6 °C	-2.4 °C	-3.1 °C	1.3 °C	0.4 °C	-1.1 °C	-0.6 °C	-0.3 °C	3.7 °C	0.1 °C	-0.5 °C
CC(C)(C)OC(=O)Nc1ccc(CNc2nccc(Nc3cc(C(=O)OC(C)(C)C)[nH]n3)n2)cc1 [43d, tert-butyl 3-((2-((4-((tert-butoxycarbonyl)amino)benzyl)amino)pyrimidin-4-yl)amino)-1H-pyrazole-5-carboxylate]	0.2 °C	-0.8 °C	1.7 °C	0.9 °C	-0.5 °C	-3.0 °C	-0.8 °C	-0.9 °C	-2.1 °C	-3.4 °C	1.7 °C	1.2 °C	-0.6 °C	0.1 °C	-0.4 °C	5.5 °C	-0.1 °C	-0.2 °C
N#CCc1ccc(Nc2nccc(Nc3cc(C4CC4)[nH]n3)n2)cc1 [compound 1, reference compound]	9.8 °C	10.1 °C	18.8 °C	10.6 °C	8.2 °C	12.0 °C	-0.1 °C	7.6 °C	8.9 °C	4.9 °C	5.1 °C	5.4 °C	3.3 °C	8.8 °C	4.9 °C	11.1 °C	1.1 °C	9.6 °C
